Measurements taken from publication PMC12413448, “Atomic resolution structures of the methane-activating enzyme in anaerobic methanotrophy reveal extensive post-translational modifications” (Nature Communications, 2025).

What was measured:
[1] = molecular target: T1, MCR from ANME-2d^V (Methyl-Coenzyme M Reductase) (Candidatus Methanoperedens sp., UniProt Z9LNO2W1Q3+Z9MSE7NHP1+Z9ZZ61DSW2); assay: X-ray crystal structure, […] Å; details: as isolated; mixture of ligands modelled in active site
T1 sequence (Z9MSE7NHP1 1-566): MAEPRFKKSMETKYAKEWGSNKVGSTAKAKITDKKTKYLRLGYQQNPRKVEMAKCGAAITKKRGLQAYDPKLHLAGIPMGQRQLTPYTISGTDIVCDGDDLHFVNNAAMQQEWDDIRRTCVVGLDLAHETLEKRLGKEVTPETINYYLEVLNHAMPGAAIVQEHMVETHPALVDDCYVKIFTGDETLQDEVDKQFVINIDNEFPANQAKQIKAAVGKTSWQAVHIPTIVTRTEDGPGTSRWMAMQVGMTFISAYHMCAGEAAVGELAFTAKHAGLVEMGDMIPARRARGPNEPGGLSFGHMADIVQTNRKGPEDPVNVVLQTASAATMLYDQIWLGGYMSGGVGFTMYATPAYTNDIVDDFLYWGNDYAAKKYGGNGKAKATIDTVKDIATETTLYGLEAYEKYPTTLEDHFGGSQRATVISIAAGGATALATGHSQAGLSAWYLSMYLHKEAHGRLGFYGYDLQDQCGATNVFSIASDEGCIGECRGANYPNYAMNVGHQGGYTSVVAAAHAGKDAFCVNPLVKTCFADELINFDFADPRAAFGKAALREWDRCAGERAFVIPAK
T1 sequence (Z9ZZ61DSW2 1-434): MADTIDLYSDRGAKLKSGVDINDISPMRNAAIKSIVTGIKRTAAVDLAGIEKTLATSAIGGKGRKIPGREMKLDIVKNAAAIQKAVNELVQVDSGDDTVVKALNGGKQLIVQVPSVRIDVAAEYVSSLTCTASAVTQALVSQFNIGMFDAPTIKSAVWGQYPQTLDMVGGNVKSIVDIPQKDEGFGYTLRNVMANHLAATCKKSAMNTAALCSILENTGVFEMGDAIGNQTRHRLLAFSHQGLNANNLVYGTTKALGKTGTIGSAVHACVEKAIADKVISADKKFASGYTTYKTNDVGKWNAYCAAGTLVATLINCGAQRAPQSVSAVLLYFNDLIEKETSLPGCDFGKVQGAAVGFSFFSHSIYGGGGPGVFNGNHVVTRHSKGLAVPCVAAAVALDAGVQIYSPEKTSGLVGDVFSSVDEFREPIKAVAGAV
T1 sequence (Z9LNO2W1Q3 1-249): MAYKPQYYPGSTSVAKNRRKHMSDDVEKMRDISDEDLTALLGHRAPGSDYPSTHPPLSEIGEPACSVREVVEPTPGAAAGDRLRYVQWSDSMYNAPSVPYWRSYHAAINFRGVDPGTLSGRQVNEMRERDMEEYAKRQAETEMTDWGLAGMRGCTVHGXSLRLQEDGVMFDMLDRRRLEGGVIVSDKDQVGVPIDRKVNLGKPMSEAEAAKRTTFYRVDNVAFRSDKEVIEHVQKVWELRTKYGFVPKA

[2] = molecular target: T2, MCR from ANME-2d^O (Methyl-Coenzyme M Reductase) (Candidatus Methanoperedens sp. BLZ2, UniProt Z9I9A7LEW2+Z9NDC8PKK5+Z9T835AYK6); assay: X-ray crystal structure, […] Å; format: binding; details: as isolated, trapped in active site; reduced thiol
T2 construct: native purification from bioreactor enrichment; (alpha beta gamma)2 dimer of heterotrimers; seven native PTMs including 3(S)-methylhistidine 159 on gamma; full length
T2 sequence (Z9T835AYK6 1-562): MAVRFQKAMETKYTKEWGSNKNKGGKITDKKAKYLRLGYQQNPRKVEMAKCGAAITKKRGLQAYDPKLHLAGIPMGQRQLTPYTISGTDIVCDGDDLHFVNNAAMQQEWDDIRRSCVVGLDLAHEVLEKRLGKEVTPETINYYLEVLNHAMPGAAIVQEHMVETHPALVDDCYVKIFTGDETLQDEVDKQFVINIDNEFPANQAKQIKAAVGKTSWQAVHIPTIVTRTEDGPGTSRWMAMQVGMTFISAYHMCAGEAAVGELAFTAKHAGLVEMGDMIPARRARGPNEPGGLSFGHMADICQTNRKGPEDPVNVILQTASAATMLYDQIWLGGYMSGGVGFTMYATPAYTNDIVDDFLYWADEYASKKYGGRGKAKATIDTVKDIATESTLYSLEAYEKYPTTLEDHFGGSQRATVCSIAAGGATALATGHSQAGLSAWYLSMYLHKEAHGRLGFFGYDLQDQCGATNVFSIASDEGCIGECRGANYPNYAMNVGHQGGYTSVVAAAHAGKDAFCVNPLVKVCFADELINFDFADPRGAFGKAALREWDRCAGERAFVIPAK
T2 sequence (Z9NDC8PKK5 1-434): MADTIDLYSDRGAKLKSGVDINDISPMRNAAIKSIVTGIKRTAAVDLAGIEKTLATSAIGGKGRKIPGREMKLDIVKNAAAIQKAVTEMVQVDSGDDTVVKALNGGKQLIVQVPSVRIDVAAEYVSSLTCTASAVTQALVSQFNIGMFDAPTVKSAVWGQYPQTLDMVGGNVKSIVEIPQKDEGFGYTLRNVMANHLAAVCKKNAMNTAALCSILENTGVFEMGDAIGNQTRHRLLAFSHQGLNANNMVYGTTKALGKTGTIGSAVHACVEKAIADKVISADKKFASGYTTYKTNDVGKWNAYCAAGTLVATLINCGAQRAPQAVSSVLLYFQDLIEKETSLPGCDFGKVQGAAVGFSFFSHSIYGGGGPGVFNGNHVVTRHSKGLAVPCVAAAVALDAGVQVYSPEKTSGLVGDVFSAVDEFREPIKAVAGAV
T2 sequence (Z9I9A7LEW2 1-249): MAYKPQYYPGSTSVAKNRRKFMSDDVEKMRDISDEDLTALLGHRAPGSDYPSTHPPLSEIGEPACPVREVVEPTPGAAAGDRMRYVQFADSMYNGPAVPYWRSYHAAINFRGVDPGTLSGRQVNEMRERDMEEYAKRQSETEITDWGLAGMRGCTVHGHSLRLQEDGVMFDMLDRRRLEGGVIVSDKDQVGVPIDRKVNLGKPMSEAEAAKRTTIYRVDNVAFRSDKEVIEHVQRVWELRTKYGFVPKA

With `O=S(=O)(O)CCS` [CoM-SH] the “X-ray crystal structure, 0.98 Å” value [1] was “optimal when the model included CoM-SH, CoB-SH, the heterodisulfide, and methyl-CoM” and the “X-ray crystal structure, 0.98 Å” value [2] was “MCRs from ANME-2c and ANME-2d^O contain reduced coenzymes trapped in the active site”.
In the case of `C[C@@H](OP(=O)(O)O)[C@H](NC(=O)CCCCCCS)C(=O)O` [CoB-SH], the “X-ray crystal structure, 0.98 Å” value [2] is reported as “MCRs from ANME-2c and ANME-2d^O contain reduced coenzymes trapped in the active site”.
For `C[C@@H](OP(=O)(O)O)[C@H](NC(=O)CCCCCCSSCCS(=O)(=O)O)C(=O)O` [heterodisulfide], the “X-ray crystal structure, 0.98 Å” value [1] was “optimal when the model included CoM-SH, CoB-SH, the heterodisulfide, and methyl-CoM”.
